Columns and labels:
Assay in all cases: Test C greenhouse herbicide test, pre- and postemergence
Assay type in all cases: in vivo
[1] = test system: wheat (winter wheat, Triticum aestivum)
From the text: (§1) Seeds of plant species selected from blackgrass (Alopecurus myosuroides), ryegrass, Italian (Italian ryegrass, Lolium multiflorum), wheat (winter wheat, Triticum aestivum), galium (catchweed bedstraw, Galium aparine), corn (Zea mays), large crabgrass, large (large crabgrass, Digitaria sanguinalis), foxtail, giant (giant foxtail, Setaria faberii), johnsongrass (Sorghum halepense), lambsquarters (Chenopodium album), morningglory (Ipomoea coccinea), nutsedge, yellow (yellow nutsedge, Cyperus esculentus), pigweed (Amaranthus retroflexus), ragweed (common ragweed, Ambrosia elatior), soybean (Glycine max), barnyardgrass (Echinochloa crus-galli), oilseed rape (Brassica napus), waterhemp (common waterhemp, Amaranthus rudis), and velvetleaf (Abutilon theophrasti) were planted into a blend of loam soil and sand and treated preemergence with test chemicals formulated in a non-phytotoxic solvent mixture which included a surfactant.
(§2) At the same time, plants selected from these crop and weed species and also chickweed (common chickweed, Stellaria media), kochia (Kochia scoparia), and oat, wild (wild oat, Avena fatua), were planted in pots containing Redi-Earth® planting medium (Scotts Company, 14111 Scottslawn Road, Marysville, Ohio 43041) comprising spaghnum peat moss, vermiculite, wetting agent and starter nutrients and treated with postemergence applications of test chemicals formulated in the same manner. Plants ranged in height from 2 to 18 cm (1- to 4-leaf stage) for postemergence treatments. Treated plants and controls were maintained in a greenhouse for 13 to 15 d, after which time all species were compared to controls and visually evaluated. Plant response ratings, summarized in Table C, are based on a scale of 0 to 100 where 0 is no effect and 100 is complete control. A dash (-) response means no test result.

soybean (Glycine max) = test system: soybean (Glycine max)
From the text: as §1, §2

[2] = test system: johnsongrass (Sorghum halepense)
From the text: as §1, §2

[3] = test system: velvetleaf (Abutilon theophrasti)
From the text: as §1, §2

[4] = test system: nutsedge, yellow (yellow nutsedge, Cyperus esculentus)
From the text: as §1, §2

[5] = test system: waterhemp (common waterhemp, Amaranthus rudis)
From the text: as §1, §2

[6] = test system: barnyardgrass (Echinochloa crus-galli)
From the text: as §1, §2

[7] = test system: lambsquarters (Chenopodium album)
From the text: as §1, §2

[8] = test system: ragweed (common ragweed, Ambrosia elatior)
From the text: as §1, §2

[9] = test system: crabgrass, large (large crabgrass, Digitaria sanguinalis)
From the text: as §1, §2

corn (Zea mays) = test system: corn (Zea mays)
From the text: as §1, §2

[10] = test system: ryegrass, Italian (Italian ryegrass, Lolium multiflorum)
From the text: as §1, §2

[11] = test system: pigweed (Amaranthus retroflexus)
From the text: as §1, §2

[12] = test system: morningglory (Ipomoea coccinea)
From the text: as §1, §2

[13] = test system: blackgrass (Alopecurus myosuroides)
From the text: as §1, §2

[14] = Postemergence, 31 g ai/ha, scale 0 to 100 (0 no effect, 100 complete control)
[15] = Postemergence, 125 g ai/ha, scale 0 to 100, 0 is no effect, 100 is complete control
[16] = Postemergence, 250 g ai/ha, scale 0 to 100, 0 no effect, 100 complete control, 13 to 15 d
[17] = Preemergence, 31 g ai/ha, scale 0 to 100, 0 is no effect, 100 is complete control
[18] = Preemergence, 62 g ai/ha, scale 0 to 100, 0 is no effect, 100 is complete control
[19] = Preemergence, 250 g ai/ha, scale 0 to 100, 0 no effect, 100 complete control
[20] = Preemergence, 125 g ai/ha, scale 0 to 100, 0 is no effect, 100 is complete control
[21] = postemergence, 62 g ai/ha, scale 0 to 100, 0 no effect, 100 complete control

## Cc1ccc2ccccc2c1-c1c(O)c(C(F)(F)F)nn(C)c1=O [Compound 102]
[1]; [14]
  Plant response rating, Wheat: 0
[1]; [15]
  Plant response rating, Wheat: 5
[1]; [16]
  Plant response rating, Wheat: 5
[1]; [17]
  Plant response rating, Wheat: 0
[1]; [18]
  Plant response rating, Wheat: 5
[1]; [19]
  Wheat plant response rating: 25
Soybean (Glycine max); [14]
  Plant response rating, Soybean: 0
Soybean (Glycine max); [15]
  Plant response rating, Soybean: 10
Soybean (Glycine max); [16]
  Plant response rating, Soybean: 10
Soybean (Glycine max); [17]
  Plant response rating, Soybean: 0
Soybean (Glycine max); [18]
  Plant response rating, Soybean: 5
Soybean (Glycine max); [20]
  Plant response rating, Soybean: 5
Soybean (Glycine max); [19]
  Soybean plant response rating: 5
[2]; [14]
  Plant response rating, Johnsongrass: 0
[2]; [15]
  Plant response rating, Johnsongrass: 0
[2]; [16]
  Plant response rating, Johnsongrass: 10
[2]; [17]
  Plant response rating, Johnsongrass: 0
[2]; [18]
  Plant response rating, Johnsongrass: 0
[2]; [20]
  Plant response rating, Johnsongrass: 0
[2]; [19]
  Johnsongrass plant response rating: 0
[3]; [14]
  Plant response rating, Velvetleaf: 30
[3]; [15]
  Plant response rating, Velvetleaf: 100
[3]; [16]
  Plant response rating, Velvetleaf: 100
[3]; [17]
  Plant response rating, Velvetleaf: 65
[3]; [18]
  Plant response rating, Velvetleaf: 85
[3]; [20]
  Plant response rating, Velvetleaf: 85
[3]; [19]
  Velvetleaf plant response rating: 100
[4]; [14]
  Plant response rating, Nutsedge, Yellow: 20
[4]; [15]
  Plant response rating, Nutsedge, Yellow: 60
[4]; [16]
  Plant response rating, Nutsedge, Yellow: 75
[4]; [17]
  Plant response rating, Nutsedge, Yellow: 15
[4]; [18]
  Plant response rating, Nutsedge, Yellow: 70
[4]; [20]
  Plant response rating, Nutsedge, Yellow: 75
[4]; [19]
  Nutsedge, Yellow plant response rating: 75
[5]; [14]
  Plant response rating, Waterhemp: 25
[5]; [15]
  Plant response rating, Waterhemp: 80
[5]; [16]
  Plant response rating, Waterhemp: 85
[5]; [17]
  Plant response rating, Waterhemp: 75
[5]; [18]
  Plant response rating, Waterhemp: 65
[5]; [20]
  Plant response rating, Waterhemp: 75
[5]; [19]
  Waterhemp plant response rating: 85
[6]; [14]
  Plant response rating, Barnyardgrass: 20
[6]; [15]
  Plant response rating, Barnyardgrass: 35
[6]; [16]
  Plant response rating, Barnyardgrass: 40
[6]; [17]
  Plant response rating, Barnyardgrass: 5
[6]; [18]
  Plant response rating, Barnyardgrass: 10
[6]; [20]
  Plant response rating, Barnyardgrass: 30
[6]; [19]
  Barnyardgrass plant response rating: 85
[6]; [21]
  Barnyardgrass plant response rating: 20
[7]; [14]
  Plant response rating, Lambsquarters: 75
[7]; [15]
  Plant response rating, Lambsquarters: 70
[7]; [16]
  Plant response rating, Lambsquarters: 100
[7]; [17]
  Plant response rating, Lambsquarters: 70
[7]; [18]
  Plant response rating, Lambsquarters: 85
[7]; [20]
  Plant response rating, Lambsquarters: 85
[7]; [19]
  Lambsquarters plant response rating: 100
[8]; [14]
  Plant response rating, Ragweed: 95
[8]; [15]
  Plant response rating, Ragweed: 100
[8]; [16]
  Plant response rating, Ragweed: 100
[8]; [17]
  Plant response rating, Ragweed: 70
[8]; [18]
  Plant response rating, Ragweed: 75
[8]; [20]
  Plant response rating, Ragweed: 90
[8]; [19]
  Ragweed plant response rating: 100
[9]; [14]
  Plant response rating, Crabgrass, Large: 5
[9]; [15]
  Plant response rating, Crabgrass, Large: 20
[9]; [16]
  Plant response rating, Crabgrass, Large: 15
[9]; [17]
  Plant response rating, Crabgrass, Large: 0
[9]; [18]
  Plant response rating, Crabgrass, Large: 5
[9]; [20]
  Plant response rating, Crabgrass, Large: 30
[9]; [19]
  Crabgrass, Large plant response rating: 55
[9]; [21]
  Crabgrass, Large plant response rating: 10
Corn (Zea mays); [14]
  Plant response rating, Corn: 0
Corn (Zea mays); [15]
  Plant response rating, Corn: 10
Corn (Zea mays); [16]
  Plant response rating, Corn: 10
Corn (Zea mays); [17]
  Plant response rating, Corn: 5
Corn (Zea mays); [18]
  Plant response rating, Corn: 10
Corn (Zea mays); [20]
  Plant response rating, Corn: 20
Corn (Zea mays); [19]
  Corn plant response rating: 30
Corn (Zea mays); [21]
  Corn plant response rating: 0
[10]; [14]
  Plant response rating, Ryegrass, Italian: 0
[10]; [15]
  Plant response rating, Ryegrass, Italian: 25
[10]; [16]
  Plant response rating, Ryegrass, Italian: 30
[10]; [17]
  Plant response rating, Ryegrass, Italian: 15
[10]; [18]
  Plant response rating, Ryegrass, Italian: 25
[10]; [20]
  Plant response rating, Ryegrass, Italian: 50
[10]; [19]
  Ryegrass, Italian plant response rating: 70
[11]; [14]
  Plant response rating, Pigweed: 75
[11]; [15]
  Plant response rating, Pigweed: 95
[11]; [16]
  Plant response rating, Pigweed: 100
[11]; [17]
  Plant response rating, Pigweed: 75
[11]; [18]
  Plant response rating, Pigweed: 85
[11]; [20]
  Plant response rating, Pigweed: 98
[11]; [19]
  Pigweed plant response rating: 100
[12]; [14]
  Plant response rating, Morningglory: 100
[12]; [15]
  Plant response rating, Morningglory: 100
[12]; [16]
  Plant response rating, Morningglory: 100
[12]; [17]
  Plant response rating, Morningglory: 45
[12]; [18]
  Plant response rating, Morningglory: 75
[12]; [20]
  Plant response rating, Morningglory: 85
[12]; [19]
  Morningglory plant response rating: 98
[13]; [14]
  Plant response rating, Blackgrass: 0
[13]; [15]
  Plant response rating, Blackgrass: 5
[13]; [16]
  Plant response rating, Blackgrass: 10
[13]; [17]
  Plant response rating, Blackgrass: 0
[13]; [18]
  Plant response rating, Blackgrass: 50
[13]; [20]
  Plant response rating, Blackgrass: 45
[13]; [19]
  Blackgrass plant response rating: 70
[13]; [21]
  Blackgrass plant response rating: 5
